According to ChEMBL document CHEMBL5325413, “Optimization of BAX trigger site activator BTSA1 with improved antitumor potency and in vitro ADMET properties” (Eur J Med Chem, 2023):
Calls of active or inactive are those of the source. The rule behind the calls is not given here.

Key:
[1] = Stability in rat plasma assessed as compound remaining measured immediately; type: ADME, cell-free; conditions: read-out: Stability
[2] = Stability in rat plasma assessed as compound remaining measured after 10 mins; type: ADME, cell-free; conditions: read-out: Stability
[3] = Stability in rat plasma assessed as compound remaining measured after 30 mins; type: ADME, cell-free; conditions: read-out: Stability
[4] = Stability in rat plasma assessed as compound remaining measured after 60 mins; type: ADME, cell-free; conditions: read-out: Stability
[5] = Stability in rat plasma assessed as compound remaining measured after 120 mins; type: ADME, cell-free; conditions: read-out: Stability
[6] = Stability in rat plasma assessed as half life; type: ADME, cell-free
[7] = human, microsomes, 1 h, 100 µM
[8] = human, 1 h, 100 µM
[9] = mouse, microsomes, 1 h, 100 µM
[10] = mouse, 1 h, 100 µM
in vitro [11] = conditions: human
in vitro [12] = conditions: mouse
A549 [13] = experiment: Induction of apoptosis in human A549 cells assessed as live cells at 10 uM incubated for 48 hrs by Annexin V-FITC/PI staining based flow cytometry analysis (reference value: 96.4%); type: functional
A549 [14] = experiment: Antiproliferative activity against human A549 cells assessed as cell growth inhibition incubated for 72 hrs by MTT assay; type: functional
HCT-116 = experiment: Antiproliferative activity against human HCT-116 cells assessed as cell growth inhibition incubated for 72 hrs by MTT assay; type: functional
PC-3 = experiment: Antiproliferative activity against human PC-3 cells assessed as cell growth inhibition incubated for 72 hrs by MTT assay; type: functional
A549 [15] = experiment: Induction of apoptosis in human A549 cells assessed as early apoptotic cells at 10 uM incubated for 48 hrs by Annexin V-FITC/PI staining based flow cytometry analysis (reference value: 0.708%); type: functional
A549 [16] = experiment: Induction of apoptosis in human A549 cells assessed as late apoptotic cells at 10 uM incubated for 48 hrs by Annexin V-FITC/PI staining based flow cytometry analysis (reference value: 2.15%); type: functional
A549 [17] = experiment: Induction of apoptosis in human A549 cells assessed as dead cells at 10 uM incubated for 48 hrs by Annexin V-FITC/PI staining based flow cytometry analysis (reference value: 0.739%); type: functional
A549 [18] = experiment: Antiproliferative activity against human A549 cells assessed as reduction in cell viability at 5 to 25 uM by MTT assay; type: functional, cell-based; conditions: dose 5-25 µM, time 24-72 hrs, TDE = time-dependent effect
NCI-H1581 = experiment: Antiproliferative activity against human NCI-H1581 cells expressing BAX assessed as cell growth inhibition incubated for 72 hrs by MTT assay; type: functional
MDA-MB-231 = experiment: Antiproliferative activity against human MDA-MB-231 cells expressing BAX assessed as cell growth inhibition incubated for 72 hrs by MTT assay; type: functional
K562 = experiment: Antiproliferative activity against human K562 cells expressing BAX assessed as cell growth inhibition incubated for 72 hrs by trypan blue cell counting analysis; type: functional
MV4-11 = experiment: Antiproliferative activity against human MV4-11 cells expressing BAX assessed as cell growth inhibition incubated for 72 hrs by trypan blue cell counting analysis; type: functional
THP-1 = experiment: Antiproliferative activity against human THP-1 cells expressing BAX assessed as cell growth inhibition incubated for 72 hrs by trypan blue cell counting analysis; type: functional
A549 [19] = experiment: Inhibition of colony formation in human A549 cells at 20 uM incubated for 2 weeks by crystal violet staining based analysis; type: functional, cell-based
A549 [20] = experiment: Induction of apoptosis in human A549 cells assessed as live cells at 20 uM incubated for 48 hrs by Annexin V-FITC/PI staining based flow cytometry analysis (reference value: 95.9 %); type: functional
A549 [21] = experiment: Induction of apoptosis in human A549 cells assessed as early apoptotic cells at 20 uM incubated for 48 hrs by Annexin V-FITC/PI staining based flow cytometry analysis (reference value: 1.09 %); type: functional
A549 [22] = experiment: Induction of apoptosis in human A549 cells assessed as late apoptotic cells at 20 uM incubated for 48 hrs by Annexin V-FITC/PI staining based flow cytometry analysis (reference value: 2.52%); type: functional
A549 [23] = experiment: Induction of apoptosis in human A549 cells assessed as dead cells at 20 uM incubated for 48 hrs by Annexin V-FITC/PI staining based flow cytometry analysis (reference value: 0.535%); type: functional
A549 [24] = experiment: Induction of apoptosis in human A549 cells assessed as live cells at 40 uM incubated for 48 hrs by Annexin V-FITC/PI staining based flow cytometry analysis (reference value: 95.9 %); type: functional
A549 [25] = experiment: Induction of apoptosis in human A549 cells assessed as late apoptotic cells at 40 uM incubated for 48 hrs by Annexin V-FITC/PI staining based flow cytometry analysis (reference value: 2.52%); type: functional
A549 [26] = experiment: Induction of apoptosis in human A549 cells assessed as dead cells at 40 uM incubated for 48 hrs by Annexin V-FITC/PI staining based flow cytometry analysis (reference value: 0.535%); type: functional
A549 [27] = experiment: Induction of apoptosis in human A549 cells assessed as total apoptotic cells at 10 uM incubated for 48 hrs by Annexin V-FITC/PI staining based flow cytometry analysis (reference value: 2.86%); type: functional
A549 [28] = experiment: Induction of apoptosis in human A549 cells assessed as total apoptotic cells at 20 uM incubated for 48 hrs by Annexin V-FITC/PI staining based flow cytometry analysis (reference value: 4.26%); type: functional
A549 [29] = experiment: Induction of apoptosis in human A549 cells assessed as total apoptotic cells at 40 uM incubated for 48 hrs by Annexin V-FITC/PI staining based flow cytometry analysis (reference value: 4.26%); type: functional
A549 [30] = experiment: Induction of apoptosis in human A549 cells assessed as cell rounding at 20 to 80 uM incubated for 48 hrs by Hoechst 33342 staining based fluorescence microscopic analysis; type: functional; conditions: dose 20-80 µM
A549 [31] = experiment: Induction of apoptosis in human A549 cells assessed as formation of apoptotic bodies at 20 to 80 uM incubated for 48 hrs by Hoechst 33342 staining based fluorescence microscopic analysis; type: functional, cell-based; conditions: dose 20-80 µM
A549 [32] = experiment: Induction of apoptosis in human A549 cells assessed as nuclear fragmentation at 20 to 80 uM incubated for 48 hrs by Hoechst 33342 staining based fluorescence microscopic analysis; type: functional, cell-based; conditions: dose 20-80 µM
A549 [33] = experiment: Induction of cell cycle arrest in human A549 cells assessed as accumulation of cells at G0/G1 phase at 10 uM incubated for 48 hrs by RNase/PI staining based flow cytometry analysis (reference value: 54.82%); type: functional
A549 [34] = experiment: Induction of cell cycle arrest in human A549 cells assessed as accumulation of cells at S phase at 10 uM incubated for 48 hrs by RNase/PI staining based flow cytometry analysis (reference value: 26.01%); type: functional
A549 [35] = experiment: Induction of cell cycle arrest in human A549 cells assessed as accumulation of cells at G2/M phase at 10 uM incubated for 48 hrs by RNase/PI staining based flow cytometry analysis (reference value: 18.97%); type: functional
[36] = Metabolic stability in human liver microsomes assessed as parent compound remaining at 100 uM incubated for 60 mins in presence of NADPH by LC-MS/MS analysis
[37] = Metabolic stability in human liver microsomes assessed as parent compound remaining at 100 uM incubated for 60 mins in absence of NADPH by LC-MS/MS analysis
[38] = Metabolic stability in mouse liver microsomes assessed as parent compound remaining at 100 uM incubated for 60 mins in presence of NADPH by LC-MS/MS analysis
[39] = Metabolic stability in mouse liver microsomes assessed as parent compound remaining at 100 uM incubated for 60 mins in absence of NADPH by LC-MS/MS analysis

CCOC(=O)[C@H](CCc1ccccc1)N[C@@H](C)C(=O)N1CCC[C@H]1C(=O)O.O=C(O)/C=C\C(=O)O [ENALAPRIL MALEATE]
remaining at 0 min [1]: 100%
remaining at 10 min [2]: 58.9%
remaining at 0.5 h [3]: 19.2%
remaining at 1 h [4]: 2.7%
remaining at 2 h [5]: 0%
half-life [6]: 10 min

O=C(O)Cc1ccccc1Nc1c(Cl)cccc1Cl [DICLOFENAC]
CLint [7]: 203 µL/min/mg
CLH ([8]; Liver): 183 mL/min/kg
CLint [9]: 29.7 µL/min/mg
CLH ([10]; Liver): 0.1176 mL/min/kg
half-life at 1 h, 100 µM (in vitro [11]; microsomes): 6.8 min
half-life at 1 h, 100 µM (in vitro [12]; microsomes): 46.7 min

O=C1/C(=N\Nc2nccs2)C(c2ccccc2)=NN1c1nc(-c2ccccc2)cs1
Activity (A549 [13]): 95.5%
GI50 (A549 [14]): 14.5 µM
GI50 (HCT-116): 12.5 µM
GI50 (PC-3): 14.3 µM
Activity (A549 [15]): 0.844%
Activity (A549 [16]): 2.97%
Activity (A549 [17]): 0.651%
Activity (A549 [18]): Tde
GI50 (NCI-H1581): 6.22 µM
GI50 (MDA-MB-231): > 20 µM
GI50 (K562): > 4 µM
GI50 (MV4-11): 6.29 µM
GI50 (THP-1): > 10 µM
inhibition (A549 [19]): Active
Activity (A549 [20]): 93.6%
Activity (A549 [21]): 3.21%
Activity (A549 [22]): 2.7%
Activity (A549 [23]): 0.486%
Activity (A549 [24]): 82.2%
Activity (A549 [25]): 10.2%
Activity (A549 [26]): 2.82%
Activity (A549 [27]): 3.81%
Activity (A549 [28]): 5.91%
Activity (A549 [29]): 14.92%
Activity (A549 [30]): Active
Activity (A549 [31]): Active
Activity (A549 [32]): Active
Activity (A549 [33]): 57.42%
Activity (A549 [34]): 24.77%
Activity (A549 [35]): 10.12%
remaining at 1 h, 100 µM [36]: 55.6%
remaining at 1 h, 100 µM [37]: 94.2%
remaining at 1 h, 100 µM [38]: 59.4%
remaining at 1 h, 100 µM [39]: 84.8%
remaining at 0 min [1]: 100%
remaining at 10 min [2]: 101%
remaining at 0.5 h [3]: 98.2%
remaining at 1 h [4]: 100%
remaining at 2 h [5]: 98.6%
half-life [6]: > 289 min
CLint [7]: 21.3 µL/min/mg
CLint [9]: 15.8 µL/min/mg
CLH [10]: 0.0626 mL/min/kg
half-life at 1 h, 100 µM (in vitro [11]; liver microsomes): 65 min
half-life at 1 h, 100 µM (in vitro [12]; liver microsomes): 87.6 min

C[C@]12CC[C@H]3[C@@H](CCC4=CC(=O)CC[C@@]43C)[C@@H]1CC[C@@H]2O [TESTOSTERONE]
CLint [7]: 106 µL/min/mg
CLH [8]: 95.5 mL/min/kg
CLH [10]: 1.4374 mL/min/kg
